Assay results published in ChEMBL document CHEMBL6127072, “PROTAC unleashed: Unveiling the synthetic approaches and potential therapeutic applications” (Eur J Med Chem, 2024).

How the values were obtained:
[1] = biological target: T1, Protein cereblon/Bromodomain-containing protein 4 (Homo sapiens, UniProt O60885+Q96SW2); assay: PROTAC activity at CRBN/BRD4 in human MV4-11 cells assessed as induction of degradation of BRD4 measured after 24 hrs by Western blot analysis; assay type: cell-based
[2] = biological target: T1, Protein cereblon/Bromodomain-containing protein 4; assay: PROTAC activity at CRBN/BRD4 in human MV4-11 cells assessed as maximal degradation at 1 uM incubated for 30 mins by Western blot analysis relative to control; assay type: cell-based
[3] = biological target: Protein cereblon/Microtubule-associated protein tau (Homo sapiens, UniProt P10636+Q96SW2); assay: PROTAC activity at CRBN/tau in HEK293T cells measured for 48 hrs by immunoblot analysis; assay type: cell-based
Sequence of Protein cereblon/Microtubule-associated protein tau (P10636 whole entry): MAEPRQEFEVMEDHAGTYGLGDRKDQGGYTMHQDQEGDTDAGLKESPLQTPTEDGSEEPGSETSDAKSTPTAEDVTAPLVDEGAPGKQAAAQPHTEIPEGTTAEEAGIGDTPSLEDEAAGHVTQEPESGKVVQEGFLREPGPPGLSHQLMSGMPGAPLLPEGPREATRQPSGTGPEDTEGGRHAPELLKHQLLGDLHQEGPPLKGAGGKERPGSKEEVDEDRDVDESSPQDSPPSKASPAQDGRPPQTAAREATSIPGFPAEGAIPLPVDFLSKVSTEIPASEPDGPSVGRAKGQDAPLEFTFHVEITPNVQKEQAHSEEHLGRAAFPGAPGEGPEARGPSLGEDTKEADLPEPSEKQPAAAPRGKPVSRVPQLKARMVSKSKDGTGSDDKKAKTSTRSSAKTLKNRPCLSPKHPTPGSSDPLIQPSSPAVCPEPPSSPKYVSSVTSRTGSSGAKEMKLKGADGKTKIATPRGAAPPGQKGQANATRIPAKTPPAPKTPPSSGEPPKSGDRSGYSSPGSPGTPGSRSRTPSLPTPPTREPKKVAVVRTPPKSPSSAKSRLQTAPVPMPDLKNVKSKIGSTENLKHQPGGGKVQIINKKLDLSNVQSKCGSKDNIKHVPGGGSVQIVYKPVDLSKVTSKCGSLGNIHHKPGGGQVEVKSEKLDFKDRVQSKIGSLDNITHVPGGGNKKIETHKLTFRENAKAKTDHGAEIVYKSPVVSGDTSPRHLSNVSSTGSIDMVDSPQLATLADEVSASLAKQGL
Sequence of Protein cereblon/Microtubule-associated protein tau (Q96SW2 whole entry): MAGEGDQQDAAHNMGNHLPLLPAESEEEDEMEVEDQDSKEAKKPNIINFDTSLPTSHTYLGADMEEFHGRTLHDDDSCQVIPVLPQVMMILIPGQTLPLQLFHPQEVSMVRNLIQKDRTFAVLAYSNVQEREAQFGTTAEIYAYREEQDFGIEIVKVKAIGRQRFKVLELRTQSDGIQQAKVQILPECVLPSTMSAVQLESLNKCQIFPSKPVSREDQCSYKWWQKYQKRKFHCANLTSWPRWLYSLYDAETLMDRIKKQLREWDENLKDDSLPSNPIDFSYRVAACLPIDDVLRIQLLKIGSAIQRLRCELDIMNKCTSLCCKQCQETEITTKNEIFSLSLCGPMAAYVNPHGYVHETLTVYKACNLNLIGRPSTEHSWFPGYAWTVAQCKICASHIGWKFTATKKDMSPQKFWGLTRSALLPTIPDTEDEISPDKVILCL

[4] = biological target: T1, Protein cereblon/Bromodomain-containing protein 4; assay: PROTAC activity at CRBN/BRD4 in human MV4-11 cells assessed as induction of degradation of BRD4; assay type: cell-based
[5] = biological target: Replicase polyprotein 1ab (Severe acute respiratory syndrome coronavirus 2, UniProt P0DTD1); assay: Inhibition of SARS CoV-2 MPro
[6] = biological target: Protein cereblon/Androgen receptor (Homo sapiens, UniProt P10275+Q96SW2); assay: PROTAC activity at AR/CRBN in human A549 cells assessed as induction of androgen receptor degradation measured after 1 hr by Western blot analysis; assay type: cell-based
Sequence of Protein cereblon/Androgen receptor (P10275 whole entry): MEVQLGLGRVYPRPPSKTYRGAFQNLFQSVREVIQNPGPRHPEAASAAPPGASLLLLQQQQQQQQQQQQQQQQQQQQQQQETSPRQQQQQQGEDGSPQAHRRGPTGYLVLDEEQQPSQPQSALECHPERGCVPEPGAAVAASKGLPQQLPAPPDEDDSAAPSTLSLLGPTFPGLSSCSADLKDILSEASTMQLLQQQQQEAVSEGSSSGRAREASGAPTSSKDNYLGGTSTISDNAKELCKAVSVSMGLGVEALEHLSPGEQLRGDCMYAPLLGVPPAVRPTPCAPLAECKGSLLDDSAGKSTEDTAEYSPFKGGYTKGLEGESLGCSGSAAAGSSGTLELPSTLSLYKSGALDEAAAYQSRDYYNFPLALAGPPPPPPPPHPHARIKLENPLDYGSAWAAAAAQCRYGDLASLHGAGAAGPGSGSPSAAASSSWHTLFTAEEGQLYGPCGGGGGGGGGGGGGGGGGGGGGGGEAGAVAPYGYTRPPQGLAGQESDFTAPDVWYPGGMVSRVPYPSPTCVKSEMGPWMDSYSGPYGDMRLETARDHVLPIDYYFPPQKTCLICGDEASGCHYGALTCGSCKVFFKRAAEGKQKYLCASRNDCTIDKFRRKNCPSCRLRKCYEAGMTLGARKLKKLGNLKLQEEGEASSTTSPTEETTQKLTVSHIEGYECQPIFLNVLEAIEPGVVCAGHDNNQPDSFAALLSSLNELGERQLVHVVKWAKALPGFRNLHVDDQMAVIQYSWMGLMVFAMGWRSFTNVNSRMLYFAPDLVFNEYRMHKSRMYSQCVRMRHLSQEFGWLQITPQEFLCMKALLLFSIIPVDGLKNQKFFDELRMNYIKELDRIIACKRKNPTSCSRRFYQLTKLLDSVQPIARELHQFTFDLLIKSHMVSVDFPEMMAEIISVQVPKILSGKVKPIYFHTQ
Sequence of Protein cereblon/Androgen receptor (Q96SW2 whole entry): as the sequence (Q96SW2 whole entry) above

[7] = biological target: T2, 3-hydroxy-3-methylglutaryl-coenzyme A reductase (Homo sapiens, UniProt P04035); assay: Inhibition of HMG-CoA Reductase (unknown origin)
T2 sequence (P04035 whole entry): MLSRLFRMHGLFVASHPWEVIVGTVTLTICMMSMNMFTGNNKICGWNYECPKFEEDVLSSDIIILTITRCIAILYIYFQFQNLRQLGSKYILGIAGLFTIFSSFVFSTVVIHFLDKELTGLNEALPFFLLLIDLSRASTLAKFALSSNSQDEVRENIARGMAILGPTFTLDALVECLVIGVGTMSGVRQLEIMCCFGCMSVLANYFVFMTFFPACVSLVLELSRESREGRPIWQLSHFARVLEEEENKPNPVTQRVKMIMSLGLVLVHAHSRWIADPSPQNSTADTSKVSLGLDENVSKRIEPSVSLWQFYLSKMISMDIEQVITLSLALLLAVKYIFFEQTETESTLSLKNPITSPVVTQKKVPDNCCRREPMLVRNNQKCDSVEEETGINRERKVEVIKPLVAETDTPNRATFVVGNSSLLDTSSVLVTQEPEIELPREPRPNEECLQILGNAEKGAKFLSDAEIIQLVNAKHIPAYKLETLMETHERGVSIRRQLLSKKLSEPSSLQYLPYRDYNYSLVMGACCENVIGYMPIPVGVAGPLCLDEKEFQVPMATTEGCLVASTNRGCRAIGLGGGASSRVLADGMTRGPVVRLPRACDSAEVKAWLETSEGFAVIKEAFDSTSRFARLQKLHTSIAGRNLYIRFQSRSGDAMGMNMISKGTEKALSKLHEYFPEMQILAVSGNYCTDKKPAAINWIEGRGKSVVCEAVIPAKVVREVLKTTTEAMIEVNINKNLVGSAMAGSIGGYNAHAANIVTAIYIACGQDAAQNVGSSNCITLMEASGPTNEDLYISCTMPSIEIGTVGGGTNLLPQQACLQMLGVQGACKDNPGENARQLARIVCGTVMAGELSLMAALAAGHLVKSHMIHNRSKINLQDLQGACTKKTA

NS3 protease = NS3 protease (Hepacivirus C, UniProt C1KIQ2); assay: Inhibition of Hepatitis C virus NS3 protease; set-up: species or system Hepacivirus hominis
Sequence of NS3 protease (C1KIQ2 whole entry): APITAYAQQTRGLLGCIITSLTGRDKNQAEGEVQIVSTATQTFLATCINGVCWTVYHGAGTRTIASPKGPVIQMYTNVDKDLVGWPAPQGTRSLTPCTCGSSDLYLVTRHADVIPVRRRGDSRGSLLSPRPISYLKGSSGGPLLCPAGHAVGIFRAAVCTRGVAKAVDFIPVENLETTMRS

[8] = biological target: T3, 3-hydroxy-3-methylglutaryl-coenzyme A reductase (Homo sapiens) (UniProt P04035); assay: Inhibition of HMG-CoA reductase (unknown origin) at 10 uM relative to control
T3 sequence (whole entry): T2 sequence (P04035 whole entry)

[9] = biological target: Protein cereblon/Leucine-rich repeat serine/threonine-protein kinase 2 (Homo sapiens, UniProt Q5S007+Q96SW2); assay: PROTAC activity at CRBN/LRRK2 in human MOLT-4 cells assessed as induction of protein .degradation incubated for 48 hrs by Western blot analysis; assay type: cell-based
Sequence of Protein cereblon/Leucine-rich repeat serine/threonine-protein kinase 2 (Q5S007 whole entry): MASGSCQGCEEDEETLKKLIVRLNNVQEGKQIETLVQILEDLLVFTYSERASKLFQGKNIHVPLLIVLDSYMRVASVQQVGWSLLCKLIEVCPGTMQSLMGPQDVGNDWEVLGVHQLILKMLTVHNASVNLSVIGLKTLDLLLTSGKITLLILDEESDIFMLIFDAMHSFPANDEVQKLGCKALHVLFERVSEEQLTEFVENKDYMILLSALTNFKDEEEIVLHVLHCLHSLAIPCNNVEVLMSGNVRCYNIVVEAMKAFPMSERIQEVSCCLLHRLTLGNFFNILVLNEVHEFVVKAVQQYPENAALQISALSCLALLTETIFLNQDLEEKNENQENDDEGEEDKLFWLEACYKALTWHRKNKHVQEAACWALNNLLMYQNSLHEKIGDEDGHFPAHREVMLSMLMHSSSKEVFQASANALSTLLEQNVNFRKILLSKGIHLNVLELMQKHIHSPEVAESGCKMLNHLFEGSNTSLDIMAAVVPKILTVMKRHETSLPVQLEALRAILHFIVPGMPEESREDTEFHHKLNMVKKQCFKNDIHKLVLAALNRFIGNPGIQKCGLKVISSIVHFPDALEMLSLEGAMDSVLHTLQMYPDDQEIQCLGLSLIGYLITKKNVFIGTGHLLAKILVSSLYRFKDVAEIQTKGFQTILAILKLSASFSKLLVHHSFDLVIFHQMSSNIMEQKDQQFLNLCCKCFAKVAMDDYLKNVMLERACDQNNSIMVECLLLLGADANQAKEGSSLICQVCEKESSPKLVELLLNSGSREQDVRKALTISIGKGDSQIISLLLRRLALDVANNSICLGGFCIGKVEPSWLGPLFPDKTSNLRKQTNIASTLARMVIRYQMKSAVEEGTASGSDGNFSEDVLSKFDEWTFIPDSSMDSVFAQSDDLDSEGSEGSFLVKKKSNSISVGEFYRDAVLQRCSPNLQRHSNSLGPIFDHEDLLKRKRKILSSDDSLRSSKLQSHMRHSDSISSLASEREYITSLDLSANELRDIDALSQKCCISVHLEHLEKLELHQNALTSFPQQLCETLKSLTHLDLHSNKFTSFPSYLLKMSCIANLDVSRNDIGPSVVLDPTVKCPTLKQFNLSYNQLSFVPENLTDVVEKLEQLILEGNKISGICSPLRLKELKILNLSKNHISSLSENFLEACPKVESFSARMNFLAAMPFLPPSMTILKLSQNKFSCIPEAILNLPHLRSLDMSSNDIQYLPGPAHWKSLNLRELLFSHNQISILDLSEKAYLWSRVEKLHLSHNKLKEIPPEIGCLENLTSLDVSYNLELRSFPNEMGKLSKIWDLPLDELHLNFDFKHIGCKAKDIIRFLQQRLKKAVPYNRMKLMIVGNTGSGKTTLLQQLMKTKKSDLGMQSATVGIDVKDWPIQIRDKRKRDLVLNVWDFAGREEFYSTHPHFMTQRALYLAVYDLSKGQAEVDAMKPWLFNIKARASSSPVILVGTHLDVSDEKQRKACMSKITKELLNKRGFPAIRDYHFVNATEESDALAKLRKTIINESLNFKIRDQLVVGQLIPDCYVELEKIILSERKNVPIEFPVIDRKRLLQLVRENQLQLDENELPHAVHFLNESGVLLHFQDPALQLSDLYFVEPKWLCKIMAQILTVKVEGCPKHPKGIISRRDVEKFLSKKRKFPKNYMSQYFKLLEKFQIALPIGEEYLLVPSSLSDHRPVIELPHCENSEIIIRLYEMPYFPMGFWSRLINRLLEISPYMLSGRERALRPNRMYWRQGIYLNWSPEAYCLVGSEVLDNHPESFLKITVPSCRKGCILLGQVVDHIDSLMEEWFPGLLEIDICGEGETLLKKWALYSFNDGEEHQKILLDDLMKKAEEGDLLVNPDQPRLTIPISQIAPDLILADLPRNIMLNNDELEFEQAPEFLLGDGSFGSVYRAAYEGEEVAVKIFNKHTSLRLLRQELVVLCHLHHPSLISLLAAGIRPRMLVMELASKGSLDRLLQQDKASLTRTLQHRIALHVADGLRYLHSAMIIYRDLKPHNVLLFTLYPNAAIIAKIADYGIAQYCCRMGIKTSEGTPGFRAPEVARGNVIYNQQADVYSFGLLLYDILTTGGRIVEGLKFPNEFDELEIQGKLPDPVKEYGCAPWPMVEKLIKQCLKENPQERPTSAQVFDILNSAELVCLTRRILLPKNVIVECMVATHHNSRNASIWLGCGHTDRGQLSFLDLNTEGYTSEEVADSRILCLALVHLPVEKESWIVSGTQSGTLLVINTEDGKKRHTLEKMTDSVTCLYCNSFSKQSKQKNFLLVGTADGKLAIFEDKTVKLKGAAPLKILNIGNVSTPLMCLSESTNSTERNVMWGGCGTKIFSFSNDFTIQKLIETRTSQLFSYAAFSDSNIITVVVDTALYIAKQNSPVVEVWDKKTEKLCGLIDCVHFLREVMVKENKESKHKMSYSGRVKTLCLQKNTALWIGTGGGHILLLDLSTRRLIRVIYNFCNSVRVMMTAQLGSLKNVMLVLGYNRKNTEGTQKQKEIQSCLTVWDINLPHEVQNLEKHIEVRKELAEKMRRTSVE
Sequence of Protein cereblon/Leucine-rich repeat serine/threonine-protein kinase 2 (Q96SW2 whole entry): as the sequence (Q96SW2 whole entry) above

T1 sequence (Q96SW2 whole entry, looked up, other chains not shown): as the sequence (Q96SW2 whole entry) above

## Cc1sc2c(c1C)C(c1ccc(Cl)cc1)=N[C@@H](CC(=O)NCCCCCNCCOc1ccc(C3CC(=O)NC(=O)C3)cc1)c1nnc(C)n1-2
[1]
  DC50: < 1 nM
[2]
  Emax: 99%

## O=C(CCc1ccc2[nH]c3ccncc3c2c1)NCCOCCCOCCNc1cccc2c1C(=O)N(C1CCC(=O)NC1=O)C2=O (stereo unspecified)
[3]
  DC50: 75 nM

## Cc1cc(-c2cc(NC(=O)CCC(=O)NCCOCCOCCNc3ccc4c(c3)C(=O)N(C3CCC(=O)NC3=O)C4=O)ccc2Oc2ccccc2)n2cc[nH]c(=O)c12 (stereo unspecified)
[4]
  DC50: 0.75 nM

## C[C@@H](OC(C)(C)C)[C@H](NC(=O)OCc1cccc(OCCCCCOc2cccc3c2C(=O)N(C2CCC(=O)NC2=O)C3=O)c1)C(=O)N[C@H](CN[C@H](C=O)C[C@@H]1CCNC1=O)CC1CCCCC1 (stereo partly specified)
[5]
  EC50: 290 nM

## Cc1ncsc1-c1ccc(CNC(=O)[C@@H]2C[C@@H](O)CN2C(=O)[C@@H](NC(=O)CCOCCOCCOCCNC(=O)[C@]23CCC(C)(C)C[C@H]2[C@H]2CC[C@@H]4[C@@]5(C)CC[C@H](O)C(C)(C)[C@@H]5CC[C@@]4(C)[C@]2(C)CC3)C(C)(C)C)cc1
[5]
  IC50: 1140 nM

## CC1(C)C(=O)N(c2ccc(C#N)c(C(F)(F)F)c2)C(=O)N1c1ccc(-c2ccc(O[C@@H]3CCN(C(=O)C4CCN(c5ccc6c(c5)C(=O)N(C5CCC(=O)NC5=O)C6=O)CC4)C3)cc2)cc1 (stereo partly specified)
[6]
  DC50: 75 nM

## Cc1ncsc1-c1ccc(CNC(=O)[C@@H]2C[C@@H](O)CN2C(=O)[C@@H](NC(=O)CCCCCCCCCCNC(=O)O[C@@H]2C[C@H](C)C=C3C=C[C@@H](C)[C@@H](CC[C@@H](O)C[C@@H](C)CC(=O)O)[C@@H]32)C(C)(C)C)cc1
[7]
  IC50: 120 nM

## CCC[C@H](NC(=O)[C@H]1N(C(=O)[C@@H](NC(=O)[C@@H](NC(=O)c2cnc(CC(=O)NCCOCCOCCOc3cc4c5c(cccc5c3)C(=O)N(C3CCC(=O)NC3=O)C4=O)cn2)C2CCCCC2)C(C)(C)C)C[C@]2(C)CCC[C@]12C)C(=O)C(=O)NC1CC1 (stereo partly specified)
NS3 protease
  EC50: 50 nM

## Cc1ncsc1-c1ccc(CNC(=O)[C@@H]2C[C@@H](O)CN2C(=O)[C@@H](NC(=O)CCCCCCCCCCNC(=O)O[C@@H]2C[C@H](C)C=C3C=C[C@@H](C)[C@@H](CC[C@@H]4C[C@@H](O)CC(=O)O4)[C@@H]32)C(C)(C)C)cc1
[8]
  inhibition: 56%

## CC(C)C[C@H](CCOCCOCCOCCNc1ccc(-c2cc(-c3cccc(Br)c3)[nH]n2)cc1)NC(=O)[C@H](O)[C@@H](N)Cc1ccccc1
[9]
  DC50: 5.04 µM
